Test results: US20110117154A1, “USE OF RIFALAZIL TO TREAT COLONIC DISORDERS” (ACTIVBIOTICS PHARMA, LLC, priority 2008, published 2011)

Tested on: C. difficile
Experiment: CDAD treatment in hamsters infected with C. difficile
Type: in vivo
Settings: for survival of hamsters infected with C. difficile: treated at the time of infection
Method: Optimal dosages and formulations of Rifalazil alone, or in combination with a second drug compound, can be determined using standard animal models known in the art. One example of an animal model for C. difficile associated disease is the Golden Syrian hamster. To determine the optimal dosage regimen of Rifalazil, Golden Syrian hamsters are injected subcutaneously with clindamycin phosphate (10 mg/kg) followed, 24 hours later, by oral gavage with 10^5 colony forming units (CFU) of C. difficile. Antibiotic treatment is then administered orally, either simultaneously or 24 hours after C. difficile administration Animals are monitored for survival, weight variations, identification of C. difficile toxins in cecal content, and histologic damage to ceca as compared to animals treated with a prophylactic protocol using standard methods known in the art (see, for example, Anton P. M. et al., Abstract ID No. 102471, Publishing ID No. T1741, presented at the American Gastroenterological Association Meeting, May 17-22, 2003; Anton P. M. et al., Gastroenterology 124:A558, 2003).
Hamsters were infected with C. difficile, and at the time of infection, were also treated with vancomycin (50 mg/kg) or Rifalazil (2 mg/kg).

[1] = microgranulated formulation, systemic administration, relatively high doses (FIG. 1)

Row | Structure (SMILES) | survival of hamsters infected with C. difficile (vancomycin 50 mg/kg) | survival of hamsters infected with C. difficile (Rifalazil 2 mg/kg) | relapses of CDAD in in vivo animal experiments [1] | treatment of CDAD in in vivo animal experiments [1]
1 | CN[C@H](CC(C)C)C(=O)N[C@H]1C(=O)N[C@@H](CC(N)=O)C(=O)N[C@H]2C(=O)N[C@H]3C(=O)N[C@H](C(=O)N[C@H](C(=O)O)c4cc(O)cc(O)c4-c4cc3ccc4O)[C@H](O)c3ccc(c(Cl)c3)Oc3cc2cc(c3O[C@@H]2O[C@H](CO)[C@@H](O)[C@H](O)[C@H]2O[C@H]2C[C@](C)(N)[C@H](O)[C@H](C)O2)Oc2ccc(cc2Cl)[C@H]1O [vancomycin, reference compound] | eventually succumbed to the infection | – | – | –
2 | CO[C@H]1/C=C/O[C@@]2(C)Oc3c(C)c(O)c4c(=O)c(c5oc6cc(N7CCN(CC(C)C)CC7)cc(O)c6nc-5c4c3C2=O)NC(=O)/C(C)=C\C=C\[C@H](C)[C@H](O)[C@@H](C)[C@@H](O)[C@@H](C)[C@H](OC(C)=O)[C@@H]1C [Rifalazil, 3′-hydroxy-5′-(4-isobutyl-1-piperazinyl) benzoxazinorifamycin] | – | All animals treated with Rifalazil survived | no relapses were observed | effectively treated
